# According to the supplement of paper PMC10307832:
# What was measured:
# Test in all cases: relative viability (nuclei count vs DMSO), 5 days (fraction); higher = more cells survive
# [1] = compound: Cc1cnc(Nc2ccc(OCCN3CCCC3)cc2)nc1Nc1cccc(S(=O)(=O)NC(C)(C)C)c1 [Fedratinib] + Nc1ncn([C@H]2C[C@H](O)[C@@H](CO)O2)c(=O)n1 [Decitabine] (partner 2 µM)
# Outline: (§1)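 Nuclei were stained with Hoechst during a one-step fixation (final 0.05% Triton X-100, 1% formaldehyde, 1 ug/ml Hoechst) carried out 5 days after dosing, then counted on 4× images. The cells, lung cancer lines in 1536-well plates, had been dosed by pin tool the day after seeding with one drug alone or a fixed anchor-drug dose plus five library-drug doses (not always all listed) in √10 steps. Relative viability is the nuclei count in treated wells divided by that in vehicle wells, and each value is the median of duplicate plates.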
# [2] = compound: COC1=CC=C(C=C1)COC2=C(C=C(C=C2)CC3=CN=C(N=C3N)N)OC [GW-2580] + NC(=O)Nc1cc(-c2cccc(F)c2)sc1C(=O)N[C@H]1CCCNC1 [AZD7762] (partner 0.2 µM)
# Outline: as §1
# [3] = compound: COC1=CC=C(C=C1)COC2=C(C=C(C=C2)CC3=CN=C(N=C3N)N)OC [GW-2580] + CC(=O)c1c(C)c2cnc(Nc3ccc(N4CCNCC4)cn3)nc2n(C2CCCC2)c1=O [Palbociclib] (partner 0.5 µM)
# Outline: as §1
# [4] = compound: Cc1cnc(Nc2ccc(OCCN3CCCC3)cc2)nc1Nc1cccc(S(=O)(=O)NC(C)(C)C)c1 [Fedratinib] + C[C@@H](Oc1cc(-c2cnn(C3CCNCC3)c2)cnc1N)c1c(Cl)ccc(F)c1Cl [Crizotinib] (partner 1 µM)
# Outline: as §1
# [5] = compound: COC1=CC=C(C=C1)COC2=C(C=C(C=C2)CC3=CN=C(N=C3N)N)OC [GW-2580] + CC(C)C[C@H](NC(=O)[C@H](Cc1ccccc1)NC(=O)c1cnccn1)B(O)O [Bortezomib] (partner 0.002 µM)
# Outline: as §1
Cell Line,relative viability ([1]; first compound 0.1 µM),relative viability ([1]; first compound 0.3162 µM),relative viability ([1]; first compound 1 µM),relative viability ([2]; first compound 0.08 µM),relative viability ([2]; first compound 0.8 µM),relative viability ([2]; first compound 2.53 µM),relative viability ([2]; first compound 8 µM),relative viability ([3]; first compound 0.08 µM),relative viability ([3]; first compound 0.8 µM),relative viability ([3]; first compound 2.53 µM),relative viability ([3]; first compound 8 µM),relative viability ([4]; first compound 0.1 µM),relative viability ([4]; first compound 0.3162 µM),relative viability ([4]; first compound 1 µM),relative viability ([5]; first compound 0.08 µM),relative viability ([5]; first compound 0.8 µM),relative viability ([5]; first compound 2.53 µM),relative viability ([5]; first compound 8 µM)
NCI-H2342,0.753,0.759,0.745,0.585,0.481,0.497,0.444,0.547,0.543,0.511,0.53,–,–,–,–,–,–,–
HCC-15,0.507,0.738,0.533,1.02,1.44,1.21,1.39,0.82,0.814,0.706,0.56,0.839,0.762,0.71,1.06,1.16,1.05,1.02
A-427,0.596,0.561,0.524,0.753,0.668,0.568,0.627,0.521,0.534,0.52,0.529,0.802,0.755,0.686,1.14,1.13,0.915,0.878
NCI-H2228,–,–,–,–,–,–,–,0.793,1.03,0.822,0.843,0.528,0.46,0.392,1.03,1.1,0.958,0.986
NCI-H1734,0.444,0.399,0.529,0.543,0.558,0.481,0.568,0.364,0.432,0.37,0.311,0.629,0.692,0.629,0.976,0.995,0.775,0.967
PC-14,0.193,0.23,0.094,0.47,0.484,0.271,0.396,0.653,0.614,0.607,0.473,0.926,0.874,0.92,0.934,1.09,0.779,0.95
NCI-H1915,0.266,0.258,0.247,0.772,0.708,0.692,0.743,0.608,0.735,0.597,0.492,0.942,0.866,0.777,1,1.11,0.959,1.05
NCI-H1666,0.638,0.746,0.7,0.824,1.1,0.852,0.826,0.647,0.65,0.649,0.64,1.03,0.994,0.843,0.727,1.2,0.791,0.89
HCC-366,0.29,0.307,0.366,0.359,0.317,0.27,0.142,0.388,0.475,0.488,0.405,0.21,0.5,0.416,1.22,1.08,1.24,1.12
SK-MES-1,0.394,0.409,0.241,–,–,–,–,0.36,0.322,0.281,0.318,1.04,0.992,0.923,–,–,–,–
SW 1573,0.524,0.577,0.105,–,–,–,–,0.439,0.38,0.397,0.408,0.747,0.733,0.709,0.903,0.932,0.987,0.798
NCI-H661,0.566,0.54,0.423,–,–,–,–,0.414,0.434,0.388,0.326,0.964,0.948,1.04,0.741,0.752,0.747,0.676
PC-3 [JPC-3],0.717,0.827,0.75,0.732,1.09,0.897,0.781,0.546,0.567,0.515,0.516,0.998,0.944,0.985,0.886,1.01,0.846,0.792
Calu-6,–,–,–,–,–,–,–,–,–,–,–,0.753,0.701,0.677,1.06,1.09,0.948,1.05
LC-2-ad,0.902,0.776,0.741,0.866,0.948,0.826,0.873,0.578,0.549,0.491,0.45,0.474,0.444,0.446,1.05,1.08,0.922,1.08
CAL-12T,–,–,–,0.639,0.737,0.602,0.594,0.639,0.416,0.517,0.413,0.262,0.588,0.322,0.901,1.28,0.884,1.16
RERF-LC-KJ,0.64,0.635,0.277,1.11,1.25,0.825,0.913,1.13,1.24,0.988,1.07,0.834,0.883,0.786,1.22,1.06,1.04,1.08
NCI-H1650,0.454,0.349,0.399,–,–,–,–,0.395,0.48,0.354,0.326,0.706,0.926,0.888,0.218,0.232,0.164,0.199
BEN,0.582,0.693,0.608,0.642,0.809,0.599,0.751,0.491,0.507,0.471,0.491,0.716,0.91,0.784,0.674,0.879,0.55,0.799
EMC-BAC-2,1.01,1.07,0.988,1.15,1.33,–,1.01,0.536,0.545,–,0.493,0.615,0.73,0.7,1.11,1.16,1.02,1.05
